Measured values: ChEMBL document CHEMBL1201862, “PubChem BioAssay data set” (2004)
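Method: 48-hour compound exposure of cells in 96-well plates, five concentrations, linear interpolation of endpoints. GI50 marks 50% less growth.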 Activity calls are given as the source filed them. No stated cut-off is given here; in the data, active = GI50 up to about 1.1 µM and inactive = higher.

How the values were obtained:
Assay in all cases: NCI anticancer screen, dose series, 48 h
786-0 = system: 786-0
A549 = system: A549
ACHN = system: ACHN
BT-549 = system: BT-549
CAKI-1 = system: CAKI-1
CCRF-CEM = system: CCRF-CEM
COLO 205 = system: COLO 205
DU-145 = system: DU-145
EKVX = system: EKVX
HCC 2998 = system: HCC 2998
HCT-116 = system: HCT-116
HCT-15 = system: HCT-15
HL-60 = system: HL-60
HOP-62 = system: HOP-62
HT-29 = system: HT-29
Hs-578T = system: Hs-578T
IGROV-1 = system: IGROV-1
K562 = system: K562
KM12 = system: KM12
LOX IMVI = system: LOX IMVI
M14 = system: M14
MCF7 = system: MCF7
MDA-MB-231 = system: MDA-MB-231
MDA-MB-435 = system: MDA-MB-435
MDA-N = system: MDA-N
MOLT-4 = system: MOLT-4
Malme-3M = system: Malme-3M
NCI-H226 = system: NCI-H226
NCI-H23 = system: NCI-H23
NCI-H460 = system: NCI-H460
NCI-H522 = system: NCI-H522
NCI/ADR-RES = system: NCI/ADR-RES
OVCAR-3 = system: OVCAR-3
OVCAR-4 = system: OVCAR-4
OVCAR-5 = system: OVCAR-5
OVCAR-8 = system: OVCAR-8
PC-3 = system: PC-3
RPMI-8226 = system: RPMI-8226
RXF 393 = system: RXF 393
SF-268 = system: SF-268
SF-295 = system: SF-295
SF-539 = system: SF-539
SK-MEL-28 = system: SK-MEL-28
SK-MEL-2 = system: SK-MEL-2
SK-MEL-5 = system: SK-MEL-5
SK-OV-3 = system: SK-OV-3
SN12C = system: SN12C
SNB-19 = system: SNB-19
SNB-75 = system: SNB-75
SW-620 = system: SW-620
T47D = system: T47D
TK-10 = system: TK-10
U-251 = system: U-251
UACC-257 = system: UACC-257
UACC-62 = system: UACC-62
UO-31 = system: UO-31
A498 = system: A498
HOP-92 = system: HOP-92
SR = system: SR

Compound: O=C1CCCC(=O)N1n1c(Cc2ccc(Cl)cc2)n[nH]c1=O
- GI50 (786-0): > 100 µM (inactive)
- GI50 (A549): > 100 µM (inactive)
- GI50 (ACHN): > 100 µM (inactive)
- GI50 (BT-549): > 100 µM (inactive)
- GI50 (CAKI-1): > 100 µM (inactive)
- GI50 (CCRF-CEM): > 100 µM (inactive)
- GI50 (COLO 205): > 100 µM (inactive)
- GI50 (DU-145): > 100 µM (inactive)
- GI50 (EKVX): > 100 µM (inactive)
- GI50 (HCC 2998): > 100 µM (inactive)
- GI50 (HCT-116): > 100 µM (inactive)
- GI50 (HCT-15): > 100 µM
- GI50 (HL-60): > 100 µM (inactive)
- GI50 (HOP-62): > 100 µM (inactive)
- GI50 (HT-29): > 100 µM (inactive)
- GI50 (Hs-578T): > 100 µM (inactive)
- GI50 (IGROV-1): > 100 µM (inactive)
- GI50 (K562): > 100 µM (inactive)
- GI50 (KM12): > 100 µM (inactive)
- GI50 (LOX IMVI): > 100 µM (inactive)
- GI50 (M14): > 100 µM (inactive)
- GI50 (MCF7): > 100 µM (inactive)
- GI50 (MDA-MB-231): > 100 µM (inactive)
- GI50 (MDA-MB-435): > 100 µM (inactive)
- GI50 (MDA-N): > 100 µM (inactive)
- GI50 (MOLT-4): > 100 µM (inactive)
- GI50 (Malme-3M): > 100 µM (inactive)
- GI50 (NCI-H226): > 100 µM (inactive)
- GI50 (NCI-H23): > 100 µM (inactive)
- GI50 (NCI-H460): > 100 µM (inactive)
- GI50 (NCI-H522): > 100 µM (inactive)
- GI50 (NCI/ADR-RES): > 100 µM (inactive)
- GI50 (OVCAR-3): > 100 µM (inactive)
- GI50 (OVCAR-4): > 100 µM (inactive)
- GI50 (OVCAR-5): > 100 µM (inactive)
- GI50 (OVCAR-8): > 100 µM (inactive)
- GI50 (PC-3): > 100 µM (inactive)
- GI50 (RPMI-8226): > 100 µM (inactive)
- GI50 (RXF 393): > 100 µM (inactive)
- GI50 (SF-268): > 100 µM (inactive)
- GI50 (SF-295): > 100 µM (inactive)
- GI50 (SF-539): > 100 µM (inactive)
- GI50 (SK-MEL-28): > 100 µM (inactive)
- GI50 (SK-MEL-2): > 100 µM (inactive)
- GI50 (SK-MEL-5): > 100 µM (inactive)
- GI50 (SK-OV-3): > 100 µM (inactive)
- GI50 (SN12C): > 100 µM (inactive)
- GI50 (SNB-19): > 100 µM (inactive)
- GI50 (SNB-75): > 100 µM (inactive)
- GI50 (SW-620): > 100 µM (inactive)
- GI50 (T47D): > 100 µM (inactive)
- GI50 (TK-10): > 100 µM (inactive)
- GI50 (U-251): > 100 µM (inactive)
- GI50 (UACC-257): > 100 µM (inactive)
- GI50 (UACC-62): > 100 µM (inactive)
- GI50 (UO-31): > 100 µM (inactive)

Compound: CCCCOc1ccc(S(=O)(=O)N/C(N)=N/c2ccc(Cl)cc2)cc1
- GI50 (786-0): 14.7 µM (inactive)
- GI50 (A498): 12.1 µM (inactive)
- GI50 (A549): 19.5 µM (inactive)
- GI50 (ACHN): 14.6 µM (inactive)
- GI50 (BT-549): 17.8 µM (inactive)
- GI50 (COLO 205): 25.2 µM (inactive)
- GI50 (DU-145): 17.4 µM (inactive)
- GI50 (EKVX): 10.3 µM (inactive)
- GI50 (HCT-116): 15.2 µM (inactive)
- GI50 (HCT-15): 14 µM
- GI50 (HOP-62): 20.2 µM (inactive)
- GI50 (HOP-92): 10.8 µM (inactive)
- GI50 (HT-29): 18.3 µM (inactive)
- GI50 (Hs-578T): 20.1 µM (inactive)
- GI50 (IGROV-1): 14.7 µM (inactive)
- GI50 (K562): 15 µM (inactive)
- GI50 (KM12): 17.9 µM (inactive)
- GI50 (LOX IMVI): 17.3 µM (inactive)
- GI50 (M14): 18.7 µM (inactive)
- GI50 (MCF7): 12.4 µM (inactive)
- GI50 (MDA-MB-231): 15.6 µM (inactive)
- GI50 (MDA-N): 16.2 µM (inactive)
- GI50 (MOLT-4): 11.2 µM (inactive)
- GI50 (Malme-3M): 14.6 µM (inactive)
- GI50 (NCI-H226): 19.9 µM (inactive)
- GI50 (NCI-H23): 15.7 µM (inactive)
- GI50 (NCI-H460): 17.1 µM (inactive)
- GI50 (NCI-H522): 10.5 µM (inactive)
- GI50 (NCI/ADR-RES): 16 µM (inactive)
- GI50 (OVCAR-3): 14.9 µM (inactive)
- GI50 (OVCAR-4): 10.2 µM (inactive)
- GI50 (OVCAR-5): 17.7 µM (inactive)
- GI50 (OVCAR-8): 16.1 µM (inactive)
- GI50 (PC-3): 17.3 µM (inactive)
- GI50 (RPMI-8226): 17.2 µM (inactive)
- GI50 (RXF 393): 16.1 µM (inactive)
- GI50 (SF-268): 14.3 µM (inactive)
- GI50 (SF-295): 18.3 µM (inactive)
- GI50 (SF-539): 20.9 µM (inactive)
- GI50 (SK-MEL-28): 16.7 µM (inactive)
- GI50 (SK-MEL-2): 17.1 µM (inactive)
- GI50 (SK-MEL-5): 18.9 µM (inactive)
- GI50 (SK-OV-3): 19.1 µM (inactive)
- GI50 (SN12C): 14.9 µM (inactive)
- GI50 (SNB-19): 16.9 µM (inactive)
- GI50 (SNB-75): 17.9 µM (inactive)
- GI50 (SR): 3.27 µM (inactive)
- GI50 (SW-620): 15.5 µM (inactive)
- GI50 (T47D): 10.7 µM (inactive)
- GI50 (TK-10): 14.9 µM (inactive)
- GI50 (U-251): 14.8 µM (inactive)
- GI50 (UACC-257): 14.1 µM (inactive)
- GI50 (UACC-62): 14.1 µM (inactive)
- GI50 (UO-31): 14.8 µM (inactive)

Compound: Cc1cc(C)c(/N=N/c2c(O)c(S(=O)(=O)O)cc3cc(S(=O)(=O)O)ccc23)cc1C
- GI50 (786-0): 48.9 µM (inactive)
- GI50 (A498): > 100 µM (inactive)
- GI50 (A549): > 100 µM (inactive)
- GI50 (ACHN): > 100 µM (inactive)
- GI50 (BT-549): > 100 µM (inactive)
- GI50 (CAKI-1): > 100 µM (inactive)
- GI50 (CCRF-CEM): > 100 µM (inactive)
- GI50 (COLO 205): > 100 µM (inactive)
- GI50 (DU-145): > 100 µM (inactive)
- GI50 (EKVX): > 100 µM (inactive)
- GI50 (HCT-116): > 100 µM (inactive)
- GI50 (HCT-15): > 100 µM
- GI50 (HOP-62): > 100 µM (inactive)
- GI50 (HOP-92): > 100 µM (inactive)
- GI50 (HT-29): > 100 µM (inactive)
- GI50 (Hs-578T): > 100 µM (inactive)
- GI50 (IGROV-1): > 100 µM (inactive)
- GI50 (K562): > 100 µM (inactive)
- GI50 (KM12): > 100 µM (inactive)
- GI50 (LOX IMVI): > 100 µM (inactive)
- GI50 (M14): > 100 µM (inactive)
- GI50 (MDA-MB-231): > 100 µM (inactive)
- GI50 (MDA-MB-435): > 100 µM (inactive)
- GI50 (MDA-N): > 100 µM (inactive)
- GI50 (MOLT-4): > 100 µM (inactive)
- GI50 (Malme-3M): > 100 µM (inactive)
- GI50 (NCI-H226): > 100 µM (inactive)
- GI50 (NCI-H23): > 100 µM (inactive)
- GI50 (NCI-H522): > 100 µM (inactive)
- GI50 (NCI/ADR-RES): > 100 µM (inactive)
- GI50 (OVCAR-3): > 100 µM (inactive)
- GI50 (OVCAR-4): > 100 µM (inactive)
- GI50 (OVCAR-5): > 100 µM (inactive)
- GI50 (OVCAR-8): > 100 µM (inactive)
- GI50 (PC-3): > 100 µM (inactive)
- GI50 (RPMI-8226): > 100 µM (inactive)
- GI50 (RXF 393): > 100 µM (inactive)
- GI50 (SF-268): > 100 µM (inactive)
- GI50 (SF-295): > 100 µM (inactive)
- GI50 (SK-MEL-28): > 100 µM (inactive)
- GI50 (SK-MEL-2): > 100 µM (inactive)
- GI50 (SK-MEL-5): > 100 µM (inactive)
- GI50 (SK-OV-3): > 100 µM (inactive)
- GI50 (SN12C): > 100 µM (inactive)
- GI50 (SNB-19): > 100 µM (inactive)
- GI50 (SNB-75): > 100 µM (inactive)
- GI50 (SW-620): > 100 µM (inactive)
- GI50 (T47D): > 100 µM (inactive)
- GI50 (TK-10): > 100 µM (inactive)
- GI50 (U-251): > 100 µM (inactive)
- GI50 (UACC-257): > 100 µM (inactive)
- GI50 (UACC-62): > 100 µM (inactive)
- GI50 (UO-31): > 100 µM (inactive)
